Laboratory results taken from patent US20090069405A1, “TREATMENT OF CNS AND PAIN DISORDERS” (Valexfarm, Ltd., priority 2007, published 2009).

Legend:
Format in all cases: in vivo
mice [1] = experiment: Forced Swim Test
Procedure: Forced Swim Test. The test apparatus consisted of a clear plastic cylindrical tank, 35 cm high and 25 cm in diameter, which was filled to a depth of 25 cm with tap water equilibrated overnight to room temperature (24° C.). A glass plate covered the top of the tank to prevent escape while the mouse was swimming. The water in the tank was replaced by fresh water at room temperature after three mice had been tested. To habituate the mouse, it was forced to swim in the tank for 15 min., then removed and dried by toweling and a heat lamp, and returned to its cage. Twenty-four hours later, the mouse was returned to the tank and allowed to swim for 5 min. while its swimming activity was recorded by a video camera, mounted above the tank. After this, the mouse was dried and returned to its cage. End points of the test were total time spent floating in an immobile position, without paddling of limbs (swimming) (Porsolt et al. Nature (1977) 266:730-732).

mice [2] = experiment: Tail-flick test
Procedure: Tail-flick test. The tail-flick test, using a radiant heat source was carried out to study antinociception. Each mouse was placed in an acrylic tube and its tail was laid across a Nichrome™ wire coil, which was heated by the passage of an electric current. The intensity of the current was kept at 5 mA. All animals were screened for the tail-flick response. Only those showing a flick within 4 sec were included in the study. After 1 h of final dosing, the mice were submitted to three tail-flick tests.

mice [3] = experiment: Hot plate test; conditions: peroral administration, 50 mg/kg, plate 55.0±0.5° C., 30 min after compound
Procedure: Hot plate test. Male mice weighing from 25 to 30 g were used in this test. […] The surface of the plate was maintained at a temperature of 55.0±0.5° C. […] Time (in seconds) to either hind paw licking or jumping was recorded as pain response latency. To avoid the likelihood of tolerance of mice to hot plate, all mice were exposed to hot plate only once through the whole experiment. The mice were exposed to hot plate only once; either before or after injection of drug.

mice [4] = experiment: Formalin paw test; conditions: formalin 4.5%, 20 μl, left hind paw, dose 30 mg/kg, compared to control
Procedure: Formalin paw test. The mice received an injection of formalin (4.5%, 20 μl) to the left hind paw. The irritation caused by the formalin injection elicits a characteristic biphasic behavioral response as quantified by the amount of time spent licking the injured paw. The first phase (˜5-10 minutes) represents direct chemical […], and the second phase (˜20-30 minutes) is thought to represent pain of neuropathic origin (Tjølsen A et al. Pain (1992) 51:5-17). The two phases are separated by a quiescent period in which behavior returns to normal. The effectiveness of test compounds to reduce the painful stimuli is assessed by counting the amount of time spent licking the injured paw in the two phases.

Compound: NC(=O)N1c2ccccc2C=Cc2ccccc21 [carbamazepine]
- antidepressive effect (total time spent floating immobile) (mice [1]; 50 mg/kg): significant effect

Compound: O=C1CNC(=O)/C1=C\NCc1ccccc1 [tetramic derivative of the invention]
- antidepressive effect (total time spent floating immobile) (mice [1]; 100 mg/kg): significant antidepressive effect
- analgesic effect (tail-flick) compared to phenytoin and valproate (mice [2]; highest dose tested 500 mg/kg, versus phenytoin 100 mg/kg and valproate 500 mg/kg): relatively better analgesic effect
- analgesic effect (tail-flick) (mice [2]; peroral administration, 1 h after final dosing): analgesic effect
- analgesic effect (pain response latency, hot plate) (mice [3]): analgesic effect
- reduction in pain score in the chronic phase (mice [4]): 5%

Compound: CCCC(CCC)C(=O)[O-].[Na+] [sodium valproate]
- antidepressive effect (total time spent floating immobile) (mice [1]; 250 mg/kg): significant effect
